Source: ChEMBL document CHEMBL2040848, “Synthesis and bioactivity evaluation of rhodanine derivatives as potential anti-bacterial agents” (2012)
Values after ≈ are worked out from the molar mass of the structure shown.

Test system: Staphylococcus aureus
Test: Antibacterial activity against Staphylococcus aureus KCTC 4220 after 24 hrs by two-fold serial dilution method
Format: functional
Conditions: KCTC 4220, 24 h

`O=C(COc1ccc(/C=C2\SC(=S)N([C@@H](Cc3ccccc3)C(=O)O)C2=O)cc1)c1ccc(Br)cc1` and `Cc1ccc(C(=O)COc2ccc(/C=C3\SC(=S)N([C@@H](Cc4ccccc4)C(=O)O)C3=O)cc2)cc1` are the same in MIC: 8 µg/mL (≈ 13.7 µM) for the first, 8 µg/mL (≈ 15.5 µM) for the second.

`COc1ccccc1C(=O)COc1ccc(/C=C2\SC(=S)N([C@@H](Cc3ccccc3)C(=O)O)C2=O)cc1` and `O=C(COc1ccc(/C=C2\SC(=S)N([C@@H](Cc3ccccc3)C(=O)O)C2=O)cc1)c1ccc(F)cc1` are the same in MIC: 4 µg/mL (≈ 7.5 µM) for the first, 4 µg/mL (≈ 7.67 µM) for the second.

`O=C(COc1ccc(/C=C2\SC(=S)N([C@@H](Cc3ccc(O)cc3)C(=O)O)C2=O)cc1)c1ccc(Cl)cc1Cl` and `O=C(COc1ccc(/C=C2\SC(=S)N([C@@H](Cc3ccc(O)cc3)C(=O)O)C2=O)cc1)c1cccc(Cl)c1` are the same in MIC: 8 µg/mL (≈ 13.6 µM) for the first, 8 µg/mL (≈ 14.4 µM) for the second.

Work on `O=C(COc1ccc(/C=C2\SC(=S)N([C@@H](Cc3ccccc3)C(=O)O)C2=O)cc1)c1ccc(Cl)cc1` yielded an MIC of 4 µg/mL (≈ 7.43 µM).

Test system: Escherichia coli
Test: Antibacterial activity against Escherichia coli 1356 after 24 hrs by two-fold serial dilution method
Format: functional
Conditions: Escherichia coli, 1356, 24 h

`O=C(COc1ccc(/C=C2\SC(=S)N([C@@H](Cc3ccccc3)C(=O)O)C2=O)cc1)c1ccc(Br)cc1` and `Cc1ccc(C(=O)COc2ccc(/C=C3\SC(=S)N([C@@H](Cc4ccccc4)C(=O)O)C3=O)cc2)cc1` cannot be ordered by MIC: greater than 64 µg/mL for the first, greater than 64 µg/mL for the second.

`COc1ccccc1C(=O)COc1ccc(/C=C2\SC(=S)N([C@@H](Cc3ccccc3)C(=O)O)C2=O)cc1` and `O=C(COc1ccc(/C=C2\SC(=S)N([C@@H](Cc3ccccc3)C(=O)O)C2=O)cc1)c1ccc(F)cc1` cannot be ordered by MIC: greater than 64 µg/mL for the first, greater than 64 µg/mL for the second.

`O=C(COc1ccc(/C=C2\SC(=S)N([C@@H](Cc3ccc(O)cc3)C(=O)O)C2=O)cc1)c1ccc(Cl)cc1Cl` and `O=C(COc1ccc(/C=C2\SC(=S)N([C@@H](Cc3ccc(O)cc3)C(=O)O)C2=O)cc1)c1cccc(Cl)c1` cannot be ordered by MIC: greater than 64 µg/mL for the first, greater than 64 µg/mL for the second.

For `O=C(COc1ccc(/C=C2\SC(=S)N([C@@H](Cc3ccccc3)C(=O)O)C2=O)cc1)c1ccc(Cl)cc1`, the MIC was greater than 64 µg/mL.

Test system: Staphylococcus aureus
Test: Antibacterial activity against methicillin-resistant Staphylococcus aureus CCARM 3506 after 24 hrs by two-fold serial dilution method
Format: functional
Conditions: CCARM 3506, 24 h

`O=C(COc1ccc(/C=C2\SC(=S)N([C@@H](Cc3ccccc3)C(=O)O)C2=O)cc1)c1ccc(Br)cc1` and `Cc1ccc(C(=O)COc2ccc(/C=C3\SC(=S)N([C@@H](Cc4ccccc4)C(=O)O)C3=O)cc2)cc1` are the same in MIC: 8 µg/mL (≈ 13.7 µM) for the first, 8 µg/mL (≈ 15.5 µM) for the second.

Compared with `COc1ccccc1C(=O)COc1ccc(/C=C2\SC(=S)N([C@@H](Cc3ccccc3)C(=O)O)C2=O)cc1`, `O=C(COc1ccc(/C=C2\SC(=S)N([C@@H](Cc3ccccc3)C(=O)O)C2=O)cc1)c1ccc(F)cc1` is 4-fold lower in MIC: 4 µg/mL (≈ 7.5 µM) for the first, 1 µg/mL (≈ 1.92 µM) for the second.

`O=C(COc1ccc(/C=C2\SC(=S)N([C@@H](Cc3ccc(O)cc3)C(=O)O)C2=O)cc1)c1ccc(Cl)cc1Cl` and `O=C(COc1ccc(/C=C2\SC(=S)N([C@@H](Cc3ccc(O)cc3)C(=O)O)C2=O)cc1)c1cccc(Cl)c1` are the same in MIC: 8 µg/mL (≈ 13.6 µM) for the first, 8 µg/mL (≈ 14.4 µM) for the second.

Work on `O=C(COc1ccc(/C=C2\SC(=S)N([C@@H](Cc3ccccc3)C(=O)O)C2=O)cc1)c1ccc(Cl)cc1` yielded an MIC of 4 µg/mL (≈ 7.43 µM).

Test system: Staphylococcus aureus
Test: Antibacterial activity against methicillin-resistant Staphylococcus aureus CCARM 3167 after 24 hrs by two-fold serial dilution method
Format: functional
Conditions: CCARM 3167, 24 h

`O=C(COc1ccc(/C=C2\SC(=S)N([C@@H](Cc3ccccc3)C(=O)O)C2=O)cc1)c1ccc(Br)cc1` and `Cc1ccc(C(=O)COc2ccc(/C=C3\SC(=S)N([C@@H](Cc4ccccc4)C(=O)O)C3=O)cc2)cc1` are the same in MIC: 4 µg/mL (≈ 6.87 µM) for the first, 4 µg/mL (≈ 7.73 µM) for the second.

Going from `COc1ccccc1C(=O)COc1ccc(/C=C2\SC(=S)N([C@@H](Cc3ccccc3)C(=O)O)C2=O)cc1` to `O=C(COc1ccc(/C=C2\SC(=S)N([C@@H](Cc3ccccc3)C(=O)O)C2=O)cc1)c1ccc(F)cc1`, the MIC falls from 4 µg/mL (≈ 7.5 µM) to 1 µg/mL (≈ 1.92 µM) (4-fold).

`O=C(COc1ccc(/C=C2\SC(=S)N([C@@H](Cc3ccc(O)cc3)C(=O)O)C2=O)cc1)c1ccc(Cl)cc1Cl` and `O=C(COc1ccc(/C=C2\SC(=S)N([C@@H](Cc3ccc(O)cc3)C(=O)O)C2=O)cc1)c1cccc(Cl)c1` are the same in MIC: 8 µg/mL (≈ 13.6 µM) for the first, 8 µg/mL (≈ 14.4 µM) for the second.

With `O=C(COc1ccc(/C=C2\SC(=S)N([C@@H](Cc3ccccc3)C(=O)O)C2=O)cc1)c1ccc(Cl)cc1` the MIC was 4 µg/mL (≈ 7.43 µM).

Test system: Staphylococcus aureus
Test: Ratio of MIC for norfloxacin to compound for quinolone-resistant Staphylococcus aureus CCARM 3505 after 24 hrs by two-fold serial dilution method
Format: functional
Conditions: not given

In the case of `O=C(COc1ccc(/C=C2\SC(=S)N([C@@H](Cc3ccccc3)C(=O)O)C2=O)cc1)c1ccc(F)cc1`, the Ratio is reported as 64.

Test system: Staphylococcus aureus
Test: Antibacterial activity against Staphylococcus aureus KCTC 503 after 24 hrs by two-fold serial dilution method
Format: functional
Conditions: KCTC 503, 24 h

`O=C(COc1ccc(/C=C2\SC(=S)N([C@@H](Cc3ccccc3)C(=O)O)C2=O)cc1)c1ccc(Br)cc1` and `Cc1ccc(C(=O)COc2ccc(/C=C3\SC(=S)N([C@@H](Cc4ccccc4)C(=O)O)C3=O)cc2)cc1` are the same in MIC: 8 µg/mL (≈ 13.7 µM) for the first, 8 µg/mL (≈ 15.5 µM) for the second.

`COc1ccccc1C(=O)COc1ccc(/C=C2\SC(=S)N([C@@H](Cc3ccccc3)C(=O)O)C2=O)cc1` and `O=C(COc1ccc(/C=C2\SC(=S)N([C@@H](Cc3ccccc3)C(=O)O)C2=O)cc1)c1ccc(F)cc1` are the same in MIC: 4 µg/mL (≈ 7.5 µM) for the first, 4 µg/mL (≈ 7.67 µM) for the second.

Compared with `O=C(COc1ccc(/C=C2\SC(=S)N([C@@H](Cc3ccc(O)cc3)C(=O)O)C2=O)cc1)c1ccc(Cl)cc1Cl`, `O=C(COc1ccc(/C=C2\SC(=S)N([C@@H](Cc3ccc(O)cc3)C(=O)O)C2=O)cc1)c1cccc(Cl)c1` is 2-fold higher in MIC: 4 µg/mL (≈ 6.8 µM) for the first, 8 µg/mL (≈ 14.4 µM) for the second.

In the case of `O=C(COc1ccc(/C=C2\SC(=S)N([C@@H](Cc3ccccc3)C(=O)O)C2=O)cc1)c1ccc(Cl)cc1`, the MIC is reported as 8 µg/mL (≈ 14.9 µM).

Test system: Staphylococcus aureus
Test: Antibacterial activity against Staphylococcus aureus KCTC 209 after 24 hrs by two-fold serial dilution method
Format: functional
Conditions: KCTC 209, 24 h

`O=C(COc1ccc(/C=C2\SC(=S)N([C@@H](Cc3ccccc3)C(=O)O)C2=O)cc1)c1ccc(Br)cc1` and `Cc1ccc(C(=O)COc2ccc(/C=C3\SC(=S)N([C@@H](Cc4ccccc4)C(=O)O)C3=O)cc2)cc1` are the same in MIC: 8 µg/mL (≈ 13.7 µM) for the first, 8 µg/mL (≈ 15.5 µM) for the second.

`COc1ccccc1C(=O)COc1ccc(/C=C2\SC(=S)N([C@@H](Cc3ccccc3)C(=O)O)C2=O)cc1` and `O=C(COc1ccc(/C=C2\SC(=S)N([C@@H](Cc3ccccc3)C(=O)O)C2=O)cc1)c1ccc(F)cc1` are the same in MIC: 4 µg/mL (≈ 7.5 µM) for the first, 4 µg/mL (≈ 7.67 µM) for the second.

Going from `O=C(COc1ccc(/C=C2\SC(=S)N([C@@H](Cc3ccc(O)cc3)C(=O)O)C2=O)cc1)c1ccc(Cl)cc1Cl` to `O=C(COc1ccc(/C=C2\SC(=S)N([C@@H](Cc3ccc(O)cc3)C(=O)O)C2=O)cc1)c1cccc(Cl)c1`, the MIC rises from 4 µg/mL (≈ 6.8 µM) to 8 µg/mL (≈ 14.4 µM) (2-fold).

`O=C(COc1ccc(/C=C2\SC(=S)N([C@@H](Cc3ccccc3)C(=O)O)C2=O)cc1)c1ccc(Cl)cc1` showed an MIC of 4 µg/mL (≈ 7.43 µM).

Test system: Staphylococcus aureus
Test: Ratio of MIC for norfloxacin to compound for quinolone-resistant Staphylococcus aureus CCARM 3519 after 24 hrs by two-fold serial dilution method
Format: functional
Conditions: not given

`O=C(COc1ccc(/C=C2\SC(=S)N([C@@H](Cc3ccccc3)C(=O)O)C2=O)cc1)c1ccc(F)cc1` was tested, and the Ratio was 64.

Test system: Staphylococcus aureus
Test: Antibacterial activity against quinolone-resistant Staphylococcus aureus CCARM 3505 after 24 hrs by two-fold serial dilution method
Format: functional
Conditions: CCARM 3505, 24 h

`O=C(COc1ccc(/C=C2\SC(=S)N([C@@H](Cc3ccccc3)C(=O)O)C2=O)cc1)c1ccc(Br)cc1` and `Cc1ccc(C(=O)COc2ccc(/C=C3\SC(=S)N([C@@H](Cc4ccccc4)C(=O)O)C3=O)cc2)cc1` are the same in MIC: 4 µg/mL (≈ 6.87 µM) for the first, 4 µg/mL (≈ 7.73 µM) for the second.

First: COc1ccccc1C(=O)COc1ccc(/C=C2\SC(=S)N([C@@H](Cc3ccccc3)C(=O)O)C2=O)cc1
Second: O=C(COc1ccc(/C=C2\SC(=S)N([C@@H](Cc3ccccc3)C(=O)O)C2=O)cc1)c1ccc(F)cc1
The MIC of the first is 4-fold higher: 4 µg/mL (≈ 7.5 µM) for the first, 1 µg/mL (≈ 1.92 µM) for the second.

`O=C(COc1ccc(/C=C2\SC(=S)N([C@@H](Cc3ccc(O)cc3)C(=O)O)C2=O)cc1)c1ccc(Cl)cc1Cl` and `O=C(COc1ccc(/C=C2\SC(=S)N([C@@H](Cc3ccc(O)cc3)C(=O)O)C2=O)cc1)c1cccc(Cl)c1` are the same in MIC: 8 µg/mL (≈ 13.6 µM) for the first, 8 µg/mL (≈ 14.4 µM) for the second.

`O=C(COc1ccc(/C=C2\SC(=S)N([C@@H](Cc3ccccc3)C(=O)O)C2=O)cc1)c1ccc(Cl)cc1` showed an MIC of 4 µg/mL (≈ 7.43 µM).

Test system: Staphylococcus aureus
Test: Ratio of MIC for oxacillin to compound for methicillin-resistant Staphylococcus aureus CCARM 3167 after 24 hrs by two-fold serial dilution method
Format: functional
Conditions: not given

`O=C(COc1ccc(/C=C2\SC(=S)N([C@@H](Cc3ccccc3)C(=O)O)C2=O)cc1)c1ccc(F)cc1` showed a Ratio of 64.

Test system: Staphylococcus aureus
Test: Ratio of MIC for oxacillin to compound for methicillin-resistant Staphylococcus aureus CCARM 3506 after 24 hrs by two-fold serial dilution method
Format: functional
Conditions: not given

With `O=C(COc1ccc(/C=C2\SC(=S)N([C@@H](Cc3ccccc3)C(=O)O)C2=O)cc1)c1ccc(F)cc1` the Ratio was 64.

Test system: Staphylococcus aureus
Test: Antibacterial activity against quinolone-resistant Staphylococcus aureus CCARM 3519 after 24 hrs by two-fold serial dilution method
Format: functional
Conditions: CCARM 3519, 24 h

`O=C(COc1ccc(/C=C2\SC(=S)N([C@@H](Cc3ccccc3)C(=O)O)C2=O)cc1)c1ccc(Br)cc1` and `Cc1ccc(C(=O)COc2ccc(/C=C3\SC(=S)N([C@@H](Cc4ccccc4)C(=O)O)C3=O)cc2)cc1` are the same in MIC: 8 µg/mL (≈ 13.7 µM) for the first, 8 µg/mL (≈ 15.5 µM) for the second.

Going from `COc1ccccc1C(=O)COc1ccc(/C=C2\SC(=S)N([C@@H](Cc3ccccc3)C(=O)O)C2=O)cc1` to `O=C(COc1ccc(/C=C2\SC(=S)N([C@@H](Cc3ccccc3)C(=O)O)C2=O)cc1)c1ccc(F)cc1`, the MIC falls from 4 µg/mL (≈ 7.5 µM) to 1 µg/mL (≈ 1.92 µM) (4-fold).

`O=C(COc1ccc(/C=C2\SC(=S)N([C@@H](Cc3ccc(O)cc3)C(=O)O)C2=O)cc1)c1ccc(Cl)cc1Cl` and `O=C(COc1ccc(/C=C2\SC(=S)N([C@@H](Cc3ccc(O)cc3)C(=O)O)C2=O)cc1)c1cccc(Cl)c1` are the same in MIC: 8 µg/mL (≈ 13.6 µM) for the first, 8 µg/mL (≈ 14.4 µM) for the second.

`O=C(COc1ccc(/C=C2\SC(=S)N([C@@H](Cc3ccccc3)C(=O)O)C2=O)cc1)c1ccc(Cl)cc1` showed an MIC of 4 µg/mL (≈ 7.43 µM).

Test system: Staphylococcus aureus
Test: Ratio of MIC for norfloxacin to compound for methicillin-resistant Staphylococcus aureus CCARM 3506 after 24 hrs by two-fold serial dilution method
Format: functional
Conditions: not given

Work on `O=C(COc1ccc(/C=C2\SC(=S)N([C@@H](Cc3ccccc3)C(=O)O)C2=O)cc1)c1ccc(F)cc1` yielded a Ratio of 4.

Test system: Staphylococcus aureus
Test: Ratio of MIC for norfloxacin to compound for methicillin-resistant Staphylococcus aureus CCARM 3167 after 24 hrs by two-fold serial dilution method
Format: functional
Conditions: not given

`O=C(COc1ccc(/C=C2\SC(=S)N([C@@H](Cc3ccccc3)C(=O)O)C2=O)cc1)c1ccc(F)cc1` showed a Ratio of 4.
